Results from US20140248291A1, “Modulation of Cellular Migration” (THE UAB RESEARCH FOUNDATION, priority 2011, published 2014).

Columns and labels:
B2R = biological target: T1, B2R (Homo sapiens, UniProt P30411); assay: calcium imaging (Fura-2), BK response with B2R antagonists; type: cell-based; settings: BK in presence of the B2R antagonist; for average peak of Ca2+ response: p<0.001 vs BK
T1 construct: endogenous in cells; host or cells: D54-MG / D54-MG-GFP human glioma cells
T1 sequence (P30411 1-391): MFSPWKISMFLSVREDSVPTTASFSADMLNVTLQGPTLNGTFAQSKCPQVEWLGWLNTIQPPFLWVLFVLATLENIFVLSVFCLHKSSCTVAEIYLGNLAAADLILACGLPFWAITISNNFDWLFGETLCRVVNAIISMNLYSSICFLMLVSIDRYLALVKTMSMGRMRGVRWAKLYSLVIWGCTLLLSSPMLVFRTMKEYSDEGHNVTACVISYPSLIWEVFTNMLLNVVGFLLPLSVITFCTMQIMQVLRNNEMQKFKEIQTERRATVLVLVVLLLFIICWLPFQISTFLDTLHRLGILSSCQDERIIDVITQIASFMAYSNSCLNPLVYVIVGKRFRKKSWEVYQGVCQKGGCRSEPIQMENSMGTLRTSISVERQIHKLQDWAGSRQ
Experimental: D54-MG cells were plated on 35-mm glass bottom dishes (MatTek, Corp., Ashland, Mass.) at ˜100×10^3 per dish and cultured for 2 days. pTRIPZ transfected cells, after stable selection, were plated at a density of ˜20×10^3 per dish and treated with […] doxycycline for 4 to 5 days to allow for sufficient protein knockdown. All cells were loaded in serum-free culture medium for 45 min with the ratiometric Ca^2+ dye Fura-2-acetoxymethylester (5 μmol/L; TEFLABS, Austin, Tex.) reconstituted in 20% wiv pluronic acid in DMSO (Invitrogen, Carlsbad, Calif.). Cells were rinsed with serum-free medium and allowed to rest in 7% serum-containing medium for 45 min at 37° C. The glass-bottom dishes were placed in an environmental chamber mounted on an inverted microscope. Cells were allowed to equilibrate in the chamber for 15 min before calcium images were collected. Following equilibration, recordings were obtained with an Olympus Disk Spinning Unit (DSU) fluorescent imaging microscope where cells were alternately excited at 340 and 380 nm using an x-cite illumination light source. Emitted light was collected at >520 nm. Images were digitized online using Slidebook 4.2 software (Intelligent Imaging Innovations, Denver, Colo.), and 340:380 nm ratios were obtained every 15 seconds. Following a 5 minute baseline recording every 15 seconds, BK was applied to the cells and imaging continued every 15 seconds for 30 or 60 minutes. In a subset of experiments, BK antagonists, HOE-140 and Bradyzide were applied to the cells. These experiments were repeated at least three times and data were pooled for statistical analysis.
Glioma cells respond to environmental clues as they invade the brain. It has been previously shown that the exposure of glioma cells to certain neuroligands induces increase in intracellular calcium concentrations. In this series of experiments, we investigated Ca^2+-responses in cultured D54-MG glioma cells, after addition of acetylcholine (ACh), ATP or BK. Glioma cells were loaded with the ratiometric Ca^2+-dye FURA2-AM, and imaged over 30 min.

rat B1 BK receptor = biological target: T2, rat B1 BK receptor (Rattus norvegicus, UniProt P97583); settings: cited from earlier work
T2 sequence (P97583 1-337): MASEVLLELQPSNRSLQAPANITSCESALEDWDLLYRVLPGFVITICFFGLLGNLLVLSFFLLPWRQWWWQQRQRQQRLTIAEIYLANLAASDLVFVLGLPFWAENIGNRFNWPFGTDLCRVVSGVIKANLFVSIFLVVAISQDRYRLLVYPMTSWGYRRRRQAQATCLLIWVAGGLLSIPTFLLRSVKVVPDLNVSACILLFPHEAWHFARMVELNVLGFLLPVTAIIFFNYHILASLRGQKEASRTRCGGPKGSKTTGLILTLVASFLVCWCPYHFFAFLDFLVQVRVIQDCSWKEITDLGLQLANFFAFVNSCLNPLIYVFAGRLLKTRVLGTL

[1] = biological target: T3, BK receptor in guinea-pig ileum preparations (Cavia porcellus, UniProt O70526); settings: read-out: K1 value, receptor binding; cited from earlier work
T3 construct: from tissue; host or cells: guinea-pig ileum preparations
T3 sequence (O70526 1-372): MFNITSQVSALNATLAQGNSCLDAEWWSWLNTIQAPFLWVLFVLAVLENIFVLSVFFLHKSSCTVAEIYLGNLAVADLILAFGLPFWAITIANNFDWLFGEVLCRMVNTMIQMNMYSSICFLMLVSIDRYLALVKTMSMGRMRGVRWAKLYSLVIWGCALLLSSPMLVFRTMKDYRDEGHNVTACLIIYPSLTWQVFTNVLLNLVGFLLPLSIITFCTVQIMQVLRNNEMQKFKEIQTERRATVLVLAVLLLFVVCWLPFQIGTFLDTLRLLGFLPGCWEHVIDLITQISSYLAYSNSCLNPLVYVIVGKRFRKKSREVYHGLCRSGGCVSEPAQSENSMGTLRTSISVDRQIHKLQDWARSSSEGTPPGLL

D54-EGFP tumor cells = assay: tumor invasion/growth in organotypic mouse brain slice cultures; type: cell-based, human
Experimental: Slice cultures were prepared from brains of P13-P16 BALB/c scid mice (Jackson Laboratory). Coronal brain sections 300 μm thick were sliced with a Vibrotome 3000 sectioning system in ice cold artificial saline. Brain slices were transferred into filter inserts with a polycarbonate membrane (Falcon, BD, pore size 0.45 μm). Filters were placed into 6-well plates containing 1 ml of DMEM supplemented with 8% FCS, 0.2 mM glutamine, 100 U/mL penicillin, and […] streptomycin. After overnight repose the medium was changed to cultivation medium containing 25% heat-inactivated horse serum, 50 mM sodium bicarbonate, 2% glutamine, 25% Hank's balanced salt solution, […] insulin (all from Gibco), 2.46 mg/mL glucose (Sigma Aldrich), 0.8 mg/mL vitamin C (Sigma Aldrich), 100 U/mL penicillin, […] streptomycin (Sigma Aldrich), and 5 mM Tris in DMEM (Gibco). At day 3 of culturing approximately 3000 D54-EGFP tumor cells in a volume of 1 μl were implanted per organotypic brain slice. Cells were injected using a 1 μl hemilton syringe mounted to a micromanipulator. The cell suspension was slowly injected over 30 seconds and subsequently the syringe was slowly pulled out. Gliomas were always inoculated into the right cortex. […] The tumor area was determined using ImageJ software (available from rsbweb.nih.gov). Tumor growth was calculated between day 4 and day 11 of culturing.

BK = BK (Homo sapiens, UniProt P30411); settings: cited from earlier work

SMILES: CN(C)CCN(C)CCNC(=O)[C@@H]1CCCN1S(=O)(=O)c1ccc(NNC(=S)NC(c2ccccc2)c2ccccc2)c([N+](=O)[O-])c1 [Bradyzide]
- cells responded / cells imaged (B2R): 156/300
- average peak of Ca2+ response (B2R): 0.15±0.02
- interaction with rat B1 BK receptor (rat B1 BK receptor): does not interact

SMILES: N=C(N)NCCCC(NC(=O)[C@H](N)CCCNC(=N)N)C(=O)N1CCC[C@H]1C(=O)N1C[C@H](O)C[C@H]1C(=O)NCC(=O)N[C@@H](Cc1cccs1)C(=O)N[C@@H](CO)C(=O)N1Cc2ccccc2C[C@@H]1C(=O)N1C2CCCCC2C[C@H]1C(=O)N[C@H](CCCNC(=N)N)C(=O)O (stereo partly drawn) [HOE-140, D-Arg-[Hyp^3, Thi^5, D-Tic^7, Oic^8]bradykinin]
- Ki [1]: 798 pM
- tumor growth day 4 to day 11 (D54-EGFP tumor cells; BK and HOE-140 compared to control slices or HOE-140 alone): did not differ significantly
- migration (spread) of GFP-expressing tumor cells (D54-EGFP tumor cells; HOE-140 (5 μM) and BK (1 μM) compared to BK alone): significantly reduced migration
- cells responded / cells imaged (B2R): 22/162
- average peak of Ca2+ response (B2R): 0.15±0.01
- potency relative to D-Arg-[Hyp^2, Thi^5,8, D-Phe^7]BK (BK): two to three orders of magnitude more potency
